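96-well plates; 48 h exposure; 5 concentrations. Endpoints by linear interpolation between flanking doses. Not reached: highest tested concentration assigned. The concentration for 50% growth inhibition is given as GI50. TGI denotes the concentration required for complete inhibition of growth.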

Holding throughout (assay): DTP human tumour cell line panel, 48 h
Assay [1] deals with DLD-1 colon.
For assay [2], the system named is KM12 colon.
For assay [3], the system named is SW-620 colon.
Assay [4] concerns HS 578T breast.
The test system of assay [5] is K-562 leukemia.
Assay [6] has as its system NCI-H23 lung.
Assay [7] has as its system OVCAR-8 ovarian.
The test system of assay [8] is HT29 colon.
In assay [9] the test system is M19-MEL melanoma.
In assay [10] the test system is 786-0 renal.

As for `CS(=O)(=O)CS(=O)(=O)OCCCl`, the TGI in assay [1] amounted to 1450 µM; in [2] it was 1120 µM; in assay [3], 1100 µM; in [4] it was 1790 µM; in assay [5] it was 3120 µM; in [6] it was 494 µM. Also, the TGI in assay [7] was 1270 µM; in [8] it was 1320 µM; in [9], 937 µM; in assay [10], 514 µM.

Regarding `CC12CCC(=O)N1c1cccnc1N2` (stereo not given), the TGI in [1], in assay [2], in assay [3], in [5], in assay [6] and in assay [7] was more than 100 µM throughout. Also, the TGI in assay [8], in assay [9] and in [10] was more than 100 µM in each case.

As for `O=C1C=CC(=CC=C2C=CN(CCCCCCCCCCC(=O)NCCCCCCCCCCCC(=O)O)C=C2)C=C1`, the total growth inhibition concentration (TGI) in assay [1], in [2], in assay [3], in [5], in [6] and in [7] was more than 100 µM throughout. In addition, the total growth inhibition concentration (TGI) in [8], in assay [9] and in [10] was more than 100 µM throughout.

Regarding `COc1cc(/C=C/C(=O)Oc2ccccc2)ccc1C(=O)O/C=C/c1ccccc1`, the TGI in assay [1], in assay [2], in assay [3], in [4], in assay [5] and in assay [6] was more than 100 µM in each case. Also, the TGI in [7], in [8], in assay [9] and in assay [10] was more than 100 µM throughout.

Regarding `Cc1ccc(N2C(=O)N(c3ccc(C)cc3)C3(SC=NN3C)C2=O)cc1` (stereo not given), the concentration for total growth inhibition (TGI) in assay [1], in assay [2], in assay [3], in assay [5], in [6] and in assay [7] was more than 100 µM throughout. Further, the TGI in [8], in assay [9] and in assay [10] was more than 100 µM in each case.

Turning to `NCCN.O=C([O-])[O-].O=C([O-])[O-].[Co+3].[K+]`, the GI50 in assay [1], in assay [2], in assay [3], in assay [5], in assay [6] and in assay [7] was more than 100 µM throughout. Moreover, the GI50 in assay [8], in [9] and in assay [10] was more than 100 µM throughout. The total growth inhibition concentration (TGI) in assay [1], in [2], in assay [3], in assay [5], in assay [6] and in assay [7] was more than 100 µM in each case. Also, the total growth inhibition concentration (TGI) in [8], in [9] and in [10] was more than 100 µM each time.

On to `Cc1c(Cl)cccc1NC(=O)c1cccc([N+](=O)[O-])c1O`, for which the TGI in assay [1] was more than 100 µM; in assay [2], more than 68.5 µM; in [3] it was more than 100 µM; in assay [5], more than 82.7 µM; in [6] it was 29.4 µM; in assay [7], more than 100 µM. For the same compound, the figures for the total growth inhibition concentration (TGI) in [8], in assay [9] and in [10] were 82 µM, 48 µM and more than 78.1 µM, respectively.

Regarding `O=C1c2ccccc2C(=O)N1C/C=N/NS(=O)(=O)c1ccc(Br)cc1`, the TGI in assay [1], in [2], in assay [3], in assay [5], in [6] and in [7] was more than 100 µM each time. The TGI in [8], in assay [9] and in assay [10] was more than 100 µM throughout.

`CSc1ccc2c(cc1=O)[C@@H](NC(=O)c1cc(O)c(O)c(O)c1)CCc1cc(O)c(O)c(O)c1-2`: the total growth inhibition concentration (TGI) worked out at 55.7 µM in assay [1]; 46.8 µM in assay [2]; 39.6 µM in assay [3]; 18.9 µM in assay [5]; 39.7 µM in assay [6]; 54.2 µM in assay [7]. The values for the TGI in assay [8], in assay [9] and in assay [10] were 48.7 µM, 29.9 µM and more than 100 µM, respectively.

In the case of `Cc1ccc2c(c1-c1ccccc1)C(=O)OC2`, the concentration for total growth inhibition (TGI) in assay [1], in assay [2], in assay [3], in [5], in assay [6] and in [7] was more than 100 µM throughout. In addition, the TGI in assay [8], in assay [9] and in assay [10] was more than 100 µM in each case.

With `C1=NC(N(Cc2ccccc2)Cc2ccccc2)N(Cc2ccccc2)N1` (stereo not given), the concentration for total growth inhibition (TGI) turned out to be 67.9 µM in assay [1]; 31.1 µM in [2]; 49.9 µM in [3]; 43.9 µM in assay [5]; 54.9 µM in assay [6]; 54.5 µM in assay [7]. Besides, the TGI in assay [8] came out at 30.9 µM; in [9] it was 34.2 µM; in [10], 35.4 µM.

The term TGI denotes the concentration at which net growth stops. By GI50 is commonly meant the concentration giving 50% growth inhibition.
